Data on 13 compounds can be found in patent US20240360137A1 (Novartis AG, priority 2023, published 2024).

Each structure is given as a SMILES string.

Assay in all cases: CDKi biochemical assay (TR-FRET, phosphorylation of S780 on RB1 peptide)
One assay addresses CDK2/CyclinE1 (Homo sapiens, UniProt P24941). To be noted: CDK2/CyclinE1 100 pM, 1 mM ATP, 60 min at 25° C. Here is the method: (§1) Biochemical assays measured the inhibitory effects of compounds in this disclosure on the enzymatic activity of CDK enzyme in complex with Cyclin protein partner by phosphorylation of Ser-780 (S780) on retinoblastoma protein peptide (RB1) in the presence of 1 mM adenosime-5-triphosphate (ATP) and varying concentration of test compound in 20 mM 2-[4-(2-hydroxyethyl)paperazin-1-yl] ethanesulfonic acid (HEPES), pH 7.5, 10 mM MgCl2, 1 mM dithiothreitol (DTT), 0.01% bovine serum albumin (BSA), 0.005% Tween 20. Total Reaction volume of 10 μL proceeded for 60 minutes at room temperature (25° C.) and were quenched with 5 μL of 200 mM 2′,2″,2′″-(Ethane-1,2-diyldinitrilo)tetraacetic acid (EDTA) pH 8.0 before addition of 5 μL detection solution containing 100 nM fluorophore conjugate streptavidin allophycocyanin (SA-APC), 2 nM Europium labelled Anti-p-RB(S780)-K (Perkin Elmer, 64CUSKAY), 50 mM HEPES, pH 7.5, 400 mM potassium fluoride (KF), 0.1% BSA, and 0.01% Tween-20. Phosphorylation of S780 on RB1 peptide (His-MBP-RB1[773-924]-SEQ ID NO. 9) was detected by TR-FRET after 3 hour incubation with detection solution. Percent phosphorylation activity was plotted against log concentration of compound to generate an apparent ICSO. The following CDK enzyme in complex with different cyclin proteins and protein peptide substrate were used in these assays: • CDK1/CyclinB1, Avi-tag, 10 pM used in the assay • CDK2/CyclinE1, Avi-tag, 100 pM used in the assay • CDK4/cyclinD1, Avi-tag, 20 pM used in the assay • CDK6/cyclinD3, Avi-tag, 10 pM used in the assay • His-MBP-RB1[773-924], Avi-tag, 200 nM used in the assay
(§2) The avi-tag is a C-terminal fusion on the CDK1/2/4/6 sequence in each of these two-protein complexes. The known avi-tag sequence, […] (SEQ ID NO. 10), is a substrate for E. coli biotin ligase BirA, which covalently attaches a biotin molecule to the e-amino group of the lysine in that sequence. The avi-tag is attached with an 8 amino-acid linker sequence GGSGGGGS (SEQ ID NO. 11), resulting in the full C-terminal fusion
(§3) Recombinant proteins were generated as N-terminal fusions of 9× His tag—E. coli Maltose Binding Protein (MBP), with or without a C-terminal Avi-tag.^1 CDK2 and His-MBP-RB1[773-924]-c-avi were expressed in E. coli while the remainder were expressed in Sf21 insect cells. Genes were synthesized commercially (GeneArt and Twist Bioscience) using codon frequencies appropriate to the respective organisms and proprietary codon optimization strategies, and inserted into pET 24 (E. coli) or pDEST8 (insect) vectors already containing the 9× His-MBP tag using standard methods of PCR and Gibson Assembly.^2 E. coli expression was performed by auto-induction overnight at 18 or 21 C. For insect cell expression, bacmids and viruses were created,^3 then used to synchronously infect Sf21 insect cells with harvest at 40-48 hrs., per standard protocols.^4
(§4) For CDK2/Cyclin E and CDK1/Cyclin B, the CDK and Cyclin proteins were expressed separately, lysed by sonication and clarified by centrifugation. The fusion proteins were each separately purified by immobilized metal ion affinity chromatography (IMAC) (5 mL HisTrap, Cytiva) and Superdex 200 26/60 (Cytiva) size-exclusion and complexed in vitro (1-3 hrs incubation at room temperature) prior to tag cleavage by recombinant his-tagged Tobacco Etch Virus protease or his-tagged Human rhinovirus 3C protease, as appropriate. The cleaved complex is further purified by Superdex 75 26/60 (Cytiva) size-exclusion followed by reverse-IMAC, in which the complex is in the column flow-through and residual His-MBP and his-tagged proteases are retained. The final complex is concentrated as desired by centrifugal concentration (Amicon Ultra 10,000 Da MWCO 15 mL concentrators, Millipore).
For E. coli expressed CDK2 and His-MBP-RB1[773-924]-c-avi, the proteins were biotinylated in vitro after the first IMAC step.^1
(§5) For the is-MBP-RB1[773-924]-c-avi, the protein was lysed by sonication and clarified by centrifugation. […]

Another assay has as its target CDK1/CyclinB1 (Homo sapiens, UniProt P06493). To be noted: CDK1/CyclinB1 10 pM, 1 mM ATP, 60 min at 25° C. As for the experimental part:
as §1, §2, §3, §4, §5

The target of another assay is CDK6/cyclinD3 (Homo sapiens, UniProt Q00534). To be noted: CDK6/cyclinD3 10 pM, 1 mM ATP, 60 min at 25° C. As for the experimental part:
as §1, §2, §3
(§6) For CDK4/Cyclin D1 and CDK6/Cyclin D3, the complexes were expressed by simultaneous co-infection of insect cells by three separate viruses including one expressing untagged E. coli BirA. The expression media is supplemented with 50 uM d-biotin. The resulting protein complexes purified similarly. After lysis and clarification, the complex is purified by IMAC, Superdex 200 26/60 size exclusion, tag cleavage by human rhinovirus 3C protease, Superdex 75 26/60 size exclusion and reverse IMAC. BirA is typically not retained on the first IMAC, and excess CDK or Cyclin monomer is separated on the Superdex 200 size exclusion. Cleaved His-MBP and remaining monomer are removed by the Superdex 75 size exclusion and the reverse IMAC step. Final concentration by centrifugal concentrators as described above.
as §5

For the next assay, the target named is CDK4/cyclinD1 (Homo sapiens, UniProt P11802). To be noted: CDK4/cyclinD1 20 pM, 1 mM ATP, 60 min at 25° C. Here is the method:
as §1, §2, §3, §6, §5

The IC50 is the concentration at which inhibition is half-maximal. Read a high IC50 as a need for much substance. In the case of `O=C1N([C@@H]2CCC[C@@H](O)C2)c2nc(Nc3c[nH]nc3OC3CCOCC3)ncc2C12CC2` [Example 74, 7′-((1R,3R)-3-hydroxycyclohexyl)-2′-((3-((tetrahydro-2H-pyran-4-yl)oxy)-1H-pyrazol-4-yl)amino)spiro[cyclopropane-1,5′-pyrrolo[2,3-d]pyrimidin]-6′(7′H)-one], the IC50 is 0.255 µM on CDK2/CyclinE1, ≥ 10 µM at CDK1/CyclinB1, ≥ 10 µM at CDK6/cyclinD3 and ≥ 10 µM on CDK4/cyclinD1.
Turning to `CN1C[C@@H](F)[C@H](Oc2n[nH]cc2Nc2ncc3c(n2)N([C@@H]2CCC[C@@H](O)C2)C(=O)C32CC2)C1` [Example 50, 2′-((3-(((3R,4R)-4-fluoro-1-methylpyrrolidin-3-yl)oxy)-1H-pyrazol-4-yl)amino)-7′-((1R,3R)-3-hydroxycyclohexyl)spiro[cyclopropane-1,5′-pyrrolo[2,3-d]pyrimidin]-6′(7′H)-one], the IC50 is 0.125 µM against CDK2/CyclinE1, ≥ 10 µM on CDK1/CyclinB1, ≥ 10 µM on CDK6/cyclinD3 and ≥ 10 µM at CDK4/cyclinD1.
In the case of `O=C1N([C@@H]2CCC[C@@H](O)C2)c2nc(Nc3c[nH]nc3C3CCOC3)ncc2C12CC2` (stereo partly drawn) [Example 8, 7′-((1R,3R)-3-hydroxycyclohexyl)-2′-((3-(tetrahydrofuran-3-yl)-1H-pyrazol-4-yl)amino)spiro[cyclopropane-1,5′-pyrrolo[2,3-d]pyrimidin]-6′(7′H)-one], the IC50 at CDK2/CyclinE1 was 0.234 µM; against CDK1/CyclinB1, ≥ 10 µM; against CDK6/cyclinD3, ≥ 10 µM; against CDK4/cyclinD1, ≥ 10 µM.
`Cc1cc(Nc2ncc3c(n2)N([C@@H]2CCC[C@@H](O)C2)C(=O)C32CC2)[nH]n1` [Example 5, 7′-((1R,3R)-3-hydroxycyclohexyl)-2′-((3-methyl-1H-pyrazol-5-yl)amino)spiro[cyclopropane-1,5′-pyrrolo[2,3-d]pyrimidin]-6′(7′H)-one]: the IC50 was 1.12 µM at CDK2/CyclinE1, ≥ 10 µM against CDK1/CyclinB1, 5.73 µM at CDK6/cyclinD3 and 6.69 µM against CDK4/cyclinD1.
The matching figures for `COCC(F)(F)COc1n[nH]cc1Nc1ncc2c(n1)N([C@@H]1CCC[C@@H](O)C1)C(=O)C21CC1` [Example 44, 2′-((3-(2,2-difluoro-3-methoxypropoxy)-1H-pyrazol-4-yl)amino)-7′-((1R,3R)-3-hydroxycyclohexyl)spiro[cyclopropane-1,5′-pyrrolo[2,3-d]pyrimidin]-6′(7′H)-one]: 0.015 µM, 1.81 µM, 7.13 µM and 4.41 µM.
`O=C1N([C@@H]2CCC[C@@H](O)C2)c2nc(Nc3c[nH]nc3OCC3(F)CC3)ncc2C12CC2` [Example 45, 2′-((3-((1-fluorocyclopropyl)methoxy)-1H-pyrazol-4-yl)amino)-7′-((1R,3R)-3-hydroxycyclohexyl)spiro[cyclopropane-1,5′-pyrrolo[2,3-d]pyrimidin]-6′(7′H)-one]: the 50% inhibitory concentration (IC50) worked out at 0.011 µM against CDK2/CyclinE1, 0.77 µM against CDK1/CyclinB1, 3.5 µM on CDK6/cyclinD3 and 1.23 µM on CDK4/cyclinD1.
Take `Cn1ncc(-c2n[nH]cc2Nc2ncc3c(n2)N([C@@H]2CCC[C@@H](O)C2)C(=O)C32CC2)c1Cl` [Example 57, 2′-((5′-chloro-1′-methyl-1H,1′H-[3,4′-bipyrazol]-4-yl)amino)-7-((1R,3R)-3-hydroxycyclohexyl)spiro[cyclopropane-1,5′-pyrrolo[2,3-d]pyrimidin]-6′(7′H)-one]: the IC50 on CDK2/CyclinE1 was 0.015 µM; on CDK1/CyclinB1 it was 2.04 µM; against CDK6/cyclinD3, ≥ 10 µM; on CDK4/cyclinD1, 7.9 µM.
The matching figures for `O=C1N([C@@H]2CCC[C@@H](O)C2)c2nc(Nc3c[nH]nc3OC[C@@H]3CCOC3)ncc2C12CC2` [Example 71, 7′-((1R,3R)-3-hydroxycyclohexyl)-2′-((3-(((R)-tetrahydrofuran-3-yl)methoxy)-1H-pyrazol-4-yl)amino)spiro[cyclopropane-1,5′-pyrrolo[2,3-d]pyrimidin]-6′(7′H)-one]: 0.044 µM, 7.59 µM, ≥ 10 µM and ≥ 10 µM.
The matching figures for `CN1C[C@H](Oc2n[nH]cc2Nc2ncc3c(n2)N([C@@H]2CCC[C@@H](O)C2)C(=O)C32CC2)[C@@H](F)C1` [Example 51, 2′-((3-(((3S,4S)-4-fluoro-1-methylpyrrolidin-3-yl)oxy)-1H-pyrazol-4-yl)amino)-7′-((1R,3R)-3-hydroxycyclohexyl)spiro[cyclopropane-1,5′-pyrrolo[2,3-d]pyrimidin]-6′(7′H)-one]: 0.119 µM, ≥ 10 µM, ≥ 10 µM and ≥ 10 µM.
The like results for `CC#Cc1n[nH]cc1Nc1ncc2c(n1)N([C@@H]1CCC[C@@H](O)C1)C(=O)C21CC1` [Example 58, 7′-((1R,3R)-3-hydroxycyclohexyl)-2′-((3-(prop-1-yn-1-yl)-1H-pyrazol-4-yl)amino)spiro[cyclopropane-1,5′-pyrrolo[2,3-d]pyrimidin]-6′(7′H)-one] were, in that order, 0.016 µM, 3.54 µM, ≥ 10 µM and 9.5 µM.
For `O=C1N([C@@H]2CCC[C@@H](O)C2)c2nc(Nc3c[nH]nc3OC3CC(F)(F)C3)ncc2C12CC2` [Example 29, 2′-((3-(3,3-difluorocyclobutoxy)-1H-pyrazol-4-yl)amino)-7′-((1R,3R)-3-hydroxycyclohexyl)spiro[cyclopropane-1,5′-pyrrolo[2,3-d]pyrimidin]-6′(7′H)-one], the IC50 against CDK2/CyclinE1 was 0.026 µM; against CDK1/CyclinB1, 3.84 µM; against CDK6/cyclinD3 it was ≥ 10 µM; at CDK4/cyclinD1 it was 7.4 µM.
For the compound `CSc1n[nH]cc1Nc1ncc2c(n1)N([C@@H]1CCC[C@@H](O)C1)C(=O)C21CC1` [Example 52, 7′-((1R,3R)-3-hydroxycyclohexyl)-2′-((3-(methylthio)-1H-pyrazol-4-yl)amino)spiro[cyclopropane-1,5′-pyrrolo[2,3-d]pyrimidin]-6′(7′H)-one], the IC50 was 0.031 µM against CDK2/CyclinE1, 5.32 µM on CDK1/CyclinB1 and ≥ 10 µM on CDK6/cyclinD3.
For the compound `COc1n[nH]cc1Nc1ncc2c(n1)N([C@@H]1CCCC[C@@H](O)C1)C(=O)C21CC1` [Example 18], the IC50 at CDK2/CyclinE1 was 0.114 µM; on CDK1/CyclinB1 it was ≥ 10 µM; on CDK4/cyclinD1, ≥ 10 µM.
